Assay results published in publication PMC8097335, “A High‐Affinity Calmodulin‐Binding Site in the CyaA Toxin Translocation Domain is Essential for Invasion of Eukaryotic Cells” (Advanced Science, 2021).

Assays:
calmodulin (CaM) = target: T1, calmodulin (CaM) (Homo sapiens, UniProt P0DP23); test: Peptide titrations by CaM followed by tryptophan fluorescence, and ITC (Kd for CaM); format: binding; conditions: for ∆GKd for CaM: ΔGKd = RTln(Kd); for ∆GKd for CaM / Kd: S.D. within ± 10%; for Kd: holo-CaM, from fluorescent titrations and ITC, 25 °C, average of at least three independent replicates; for Decrease of affinity for CaM relative to P454: from Table S3
T1 construct: made in house; host or cells: E. coli
From the text: peptides by CaM and is expressed as follows: 𝐾𝐾 𝑑𝑑 = [𝑃𝑃 ]∗[𝐶𝐶𝐶𝐶𝐶𝐶 ][𝑃𝑃:𝐶𝐶𝐶𝐶𝐶𝐶] , given 𝐾𝐾𝑑𝑑[𝐶𝐶𝐶𝐶𝐶𝐶]= [𝑃𝑃 ][𝑃𝑃 :𝐶𝐶𝐶𝐶𝐶𝐶]and the fraction of complex, fP:CaM, i s: 𝑓𝑓𝑃𝑃:𝐶𝐶𝐶𝐶𝐶𝐶 = [𝑃𝑃 :𝐶𝐶𝐶𝐶𝐶𝐶 ][𝑃𝑃:𝐶𝐶𝐶𝐶𝐶𝐶]+[𝑃𝑃]= 11+ [𝑃𝑃 ]= 11+ 𝐾𝐾𝑑𝑑.

[1] = Peptide titrations by SUVs followed by tryptophan fluorescence (solution-to-membrane partition); format: physicochemical; conditions: for Partition coefficient KX: POPC:POPG 8:2 SUVs, buffer A pH 7.4, 25 °C, tryptophan fluorescence ratio 330/370 nm; for Partition coefficient KX / ∆GKx for POPC POPG 8:2: S.D. within ± 10%; for Kd: converted from KX: [W]/KX = Kd, [W] = 55.5 M, read-out: Kd for POPC:POPG 8:2; for ∆GKx for POPC POPG 8:2: ∆GKx = -RT Ln Kx
Procedure: Lipid vesicles preparation
Small unilamellar vesicles (SUVs) and large unilamellar vesicles (LUVs) were prepared with POPC and POPG at a molar ratio of 8:2, at a lipid concentration of 10 mM in buffer A, as previously described 1. Briefly, SUVs and LUVs were prepared by reverse phase evaporation and filtered through polycarbonate filters of 1 μm and 0.2 μm of pore size diameter to obtain L UV. SUVs were further sonicated. The hydrodynamic diameters and mean net charge of the vesicles were measured by dynamic light scattering (DLS) and electrophoretic mobility, respectively, using a ZetaSizer NanoZS (Malvern Pananalytical , Orsay, France) 11.
Peptide titrations bySUV s and CaM followed by tryptophan fluorescence
Titrations were carried out with a FP-8200 Jasco spectrofluorimeter, equipped with a Pelt ie r - thermostated ETC-272T at 25°C. A bandwidth of 5 nm was used for both excitation and […]
(Hellma, France) with constant stirring. Fluorescence emission was recorded between 300 and […]
400 nm at a scan rate of 100 nm/min, with an excitation wavelength of 280 nm. Fluorescence emission spectra were corrected for SUV or CaM baselines . Fluorescence intensity ratio at 330 nm over 370 nm was use d to measure the partition coefficient (K X) of peptides between the solution andmembrane s 1, 12 and the affinity (K d) of peptides for CaM 13.
Determination of partition coefficient KX and dissociation constant Kd from […]
The partition coefficient KX is defined as the ratio of protein in the lipid (PL) and in buffer […]
(PW) pha se s 12, 14, expressed by: KKXX = [LL ]? , giving[PPWW ] [PPWW ]= [WW], where [W] the […]
concentration of water (55.5 M) and [L] the lipid concentration.
The fraction of peptide partitioned into the membrane, fPL, is equal to:
ffPPLL = [PPLL ][PPTT ]= [PPLL ][PPLL ]+[PPWW ]= 11+([PPWW ])= 11+( [WW]), where PT is the total concentration of peptides [PP TT ]= [PP LL ]+ [PP WW ]. […]
The equations a re fitted to the experimental data using the KaleidaGraph software, providing the KX and K d value s. The partition coefficient is related to the apparent dissociation constant:
KKXX × KKdd = [WW ] and to the free energy of partition ΔG Kx = -RTln(K X), where ΔG is the free energy in kcal/mol, R the gas constant (R = 1.98 x 10-3 kcal/mol/K) and T the temperature i n Kelvin. The free energy of peptide CaM interaction, ∆G Kd, is given by ΔG Kd = RTln(K d).
Sedimentation velocity-Analytical ultracentrifugation (SV -AUC) […]
ratio 1:1 (at 70 µM each). Samples were incubated 2h at 20°C in the ultracentrifuge and, then span at 42,000 rpm in an An-50 Ti rotor. […]

[2] = Membrane permeabilization of ANTS/DPX-loaded LUVs; conditions: for CP1/2, peptide concentration required to induce recovery of 50% of ANTS fluorescence intensity upon LUVs permeabilization: ANTS:DPX LUVs POPC:POPG 8:2, 0.45 mM lipid, buffer A pH 7.4, 25 °C, ex 390/em 515 nm, S.D. ± 5%
Procedure: To monitor membrane permeabilization induced by peptides, ANTS (fluorophore probe) and
DPX (quencher) were encapsulated into large unilamellar vesicles (LUVs). The LUVs were
prepared at a concentration of 10 mM lipid at a POPC:PO PG molar ratio of 8:2 containing 20
mM ANTS and 60 mM DPX. The multilamellar vesicle suspension was extrudedthrough 0.4-
and 0.2 μm polycarbonate filters to produce LUVs. The unencapsulated ANT S a nd DPX we re
removed by gel filtration with a 5 mL Sephadex G -25 column (GE Healthcare Life Sciences ).
For permeabilization assays, LUVs were incubated in buffer A at 0.45 mM lipid
concentration at 25°C in a 101-QS cuvette (Hellma, France) and under constant stirring.
excitation wavelength was set at 390 nm and the emission of ANTS was continuously
measured at 515 nm. The maximum intensity of permeabilization, corresponding to the
maximum recovery of ANTS fluorescence, was measured after addition of 0.1% of Triton
X100. The concentration of membrane-bound peptide s required to induce the recovery of half
intensity of the ANTS fluorescence (C P1/2) was extracted from the permeabilization intensity
a s a function of peptide concentration 1.
LUVs were incubated in buffer B at a lipid concentration of 0.45 mM.
After a few seconds of permeabilization,
holo-Ca M wa s added t o t he solution at a peptide:Ca M molar ratio of 1:3. EDT A wa s
subsequently added in excess to chelate calcium and convert holo -CaM to apo -C a M .

[3] = Synchrotron radiation circular dichroism, alpha-helical content (Bestsel); format: physicochemical; conditions: 25 °C, far-UV SRCD; for alpha-helical content, TFE 20%: 20% TFE; for alpha-helical content, POPC:POPG 8:2: SUVs POPC:POPG 8:2 at 2 mM lipid; for alpha-helical content, Solution: buffer A
Procedure: Synchrotron Radiation Circular Dichroism
Synchrotron radiation circular dichroism (SRCD) was performed on the DISCO beamline of the synchrotron SOLEIL (Saint -Aubin, France) . Spectra were recorded at 25°C with an integration time of 1.2 s and a bandwidth of 1 nm with a resolution of 1 nm. A far-UV spectrum represents the average of four individual scans. QS cells (Hellma, France) with a pathlength of 20, 50, 100 or 200 μm (depending on final protein concentrations) were used to record spectra in the fa r -UV range (from 190 to 250 nm). CD spectra of peptides and proteins were measured in buffers A and B, 20% of trifluoroethanol (TFE), in the presence of SUVs (POPC :PO PG 8: 2) or Ca M. Secondary structure content was estimated using Bestsel software […]
Table S8: Estimation of the α -helical content of P454-derived peptides. The secondary structure content is estimated using the on-line Bestsel software 17 available at http://bestsel.elte.hu/index.php. […]
peptide in buffer A, in 20% TFE and in the presence of POPC POPG (molar ratio 8:2) at 2 mM lipid concentration. The far -UV CD spectra of several P454-derived peptides are shown […]

In the case of “Ac-ASAHWGQRAAQGAQAVAAAQRAVSAAALMTQ-NH2 [P454 L463A-L475A-H477S-I479A]”, the “∆GKd for CaM” value (calmodulin (CaM)) is reported as -6.8 kcal/mol, the “Partition coefficient KX” value [1] is reported as 35 ×10^3 and the Kd [1] is reported as 1580 µM. For the same substance, the “∆GKx for POPC POPG 8:2” value [1] was -6.2 kcal/mol, the “Vesicle permeabilization (in words)” value ([2]; ANTS:DPX LUVs POPC:POPG 8:2) was “do not permeabilize vesicles” and the “CP1/2, peptide concentration required to induce recovery of 50% of ANTS fluorescence intensity upon LUVs permeabilization” value [2] was > 50 µM. For the same substance, the “alpha-helical content, TFE 20%” value [3] was 38 ± 2%, the “alpha-helical content, POPC:POPG 8:2” value [3] was 5 ± 2% and the “alpha-helical content, Solution” value [3] was 4 ± 1%.
For “Ac-ASAHWGQRAAQGAQAVAAAQRLVHAIALMTQ-NH2 [P454 L463A]”, the Kd (calmodulin (CaM)) was 200 nM, the “∆GKd for CaM” value (calmodulin (CaM)) was -9.1 kcal/mol and the “Partition coefficient KX” value [1] was 630 ×10^3. For the same substance, the Kd [1] was 90 µM, the “∆GKx for POPC POPG 8:2” value [1] was -7.9 kcal/mol and the “CP1/2, peptide concentration required to induce recovery of 50% of ANTS fluorescence intensity upon LUVs permeabilization” value [2] was 0.41 µM. For the same substance, the “alpha-helical content, TFE 20%” value [3] was 48 ± 3%, the “alpha-helical content, POPC:POPG 8:2” value [3] was 19 ± 2% and the “alpha-helical content, Solution” value [3] was 14 ± 2%.
With “Ac-ASAHWGQRALQGAQAVAAAQRAVHAIALMTQ-NH2 [P454 L475A]” the Kd (calmodulin (CaM)) was 120 nM, the “∆GKd for CaM” value (calmodulin (CaM)) was -9.4 kcal/mol and the “Partition coefficient KX” value [1] was 350 ×10^3. The Kd [1] was 160 µM, the “∆GKx for POPC POPG 8:2” value [1] was -7.7 kcal/mol and the “CP1/2, peptide concentration required to induce recovery of 50% of ANTS fluorescence intensity upon LUVs permeabilization” value [2] was 0.64 µM. The “alpha-helical content, TFE 20%” value [3] was 45 ± 1%, the “alpha-helical content, POPC:POPG 8:2” value [3] was 15 ± 1% and the “alpha-helical content, Solution” value [3] was 5 ± 2%.
With “Ac-ASAHWGQRALQGAQAVAAAQRAVSAAALMTQ-NH2 [P454 L475A-H477S-I479A]” the “Decrease of affinity for CaM relative to P454” value (calmodulin (CaM)) was “≈ 20 fold”, the Kd (calmodulin (CaM)) was 1540 nM and the “∆GKd for CaM” value (calmodulin (CaM)) was -7.9 kcal/mol. The “Partition coefficient KX” value [1] was 18 ×10^3, the Kd [1] was 3160 µM and the “∆GKx for POPC POPG 8:2” value [1] was -5.8 kcal/mol. For the same substance, the “CP1/2, peptide concentration required to induce recovery of 50% of ANTS fluorescence intensity upon LUVs permeabilization” value [2] was 9.03 µM, the “alpha-helical content, TFE 20%” value [3] was 51 ± 4% and the “alpha-helical content, POPC:POPG 8:2” value [3] was 6 ± 2%. For the same substance, the “alpha-helical content, Solution” value [3] was 6 ± 2%.
In the case of “Ac-ASAHWGQRALQGAQAVAAAQRLVHAAALMTQ-NH2 [P454 I479A]”, the “∆GKd for CaM” value (calmodulin (CaM)) is reported as -7.9 kcal/mol, the “Partition coefficient KX” value [1] is reported as 330 ×10^3 and the Kd [1] is reported as 170 µM. The “∆GKx for POPC POPG 8:2” value [1] was -7.5 kcal/mol, the “CP1/2, peptide concentration required to induce recovery of 50% of ANTS fluorescence intensity upon LUVs permeabilization” value [2] was 7.86 µM and the “alpha-helical content, TFE 20%” value [3] was 29 ± 1%. The “alpha-helical content, POPC:POPG 8:2” value [3] was 12 ± 3% and the “alpha-helical content, Solution” value [3] was 8 ± 2%.
For “Ac-ASAHWGQRALQGAQAVAAAQRLVHAIAAMTQ-NH2 [P454 L481A]”, the Kd (calmodulin (CaM)) was 90 nM, the “∆GKd for CaM” value (calmodulin (CaM)) was -9.6 kcal/mol and the “Partition coefficient KX” value [1] was 780 ×10^3. The Kd [1] was 70 µM, the “∆GKx for POPC POPG 8:2” value [1] was -8 kcal/mol and the “CP1/2, peptide concentration required to induce recovery of 50% of ANTS fluorescence intensity upon LUVs permeabilization” value [2] was 0.06 µM. The “alpha-helical content, TFE 20%” value [3] was 49 ± 1%, the “alpha-helical content, POPC:POPG 8:2” value [3] was 44 ± 3% and the “alpha-helical content, Solution” value [3] was 5 ± 1%.
For “Ac-ASAHWGQRALQGAQAVAAAQRLVHALALMTQ-NH2 [P454 I479L]”, the Kd (calmodulin (CaM)) was 60 nM, the “∆GKd for CaM” value (calmodulin (CaM)) was -9.8 kcal/mol and the “Partition coefficient KX” value [1] was 700 ×10^3. For the same substance, the Kd [1] was 80 µM, the “∆GKx for POPC POPG 8:2” value [1] was -7.9 kcal/mol and the “CP1/2, peptide concentration required to induce recovery of 50% of ANTS fluorescence intensity upon LUVs permeabilization” value [2] was 0.04 µM. The “alpha-helical content, TFE 20%” value [3] was 51 ± 1%, the “alpha-helical content, POPC:POPG 8:2” value [3] was 51 ± 5% and the “alpha-helical content, Solution” value [3] was 13 ± 1%.
In the case of “Ac-ASAHWGQRALQGAQAVAAAQRLVHAVALMTQ-NH2 [P454 I479V]”, the Kd (calmodulin (CaM)) is reported as 110 nM, the “∆GKd for CaM” value (calmodulin (CaM)) is reported as -9.4 kcal/mol and the “Partition coefficient KX” value [1] is reported as 560 ×10^3. For the same substance, the Kd [1] was 100 µM, the “∆GKx for POPC POPG 8:2” value [1] was -7.8 kcal/mol and the “CP1/2, peptide concentration required to induce recovery of 50% of ANTS fluorescence intensity upon LUVs permeabilization” value [2] was 0.09 µM. For the same substance, the “alpha-helical content, TFE 20%” value [3] was 47 ± 6%, the “alpha-helical content, POPC:POPG 8:2” value [3] was 37 ± 2% and the “alpha-helical content, Solution” value [3] was 2 ± 1%.
In the case of “Ac-ASAHWGQRALQGAQAVAAAQRLVSAAALMTQ-NH2 [P454 H477S-I479A]”, the “Decrease of affinity for CaM relative to P454” value (calmodulin (CaM)) is reported as “≈ 20 fold”, the Kd (calmodulin (CaM)) is reported as 1190 nM and the “∆GKd for CaM” value (calmodulin (CaM)) is reported as -8.0 kcal/mol. The “Partition coefficient KX” value [1] was 105 ×10^3, the Kd [1] was 530 µM and the “∆GKx for POPC POPG 8:2” value [1] was -6.8 kcal/mol. For the same substance, the “CP1/2, peptide concentration required to induce recovery of 50% of ANTS fluorescence intensity upon LUVs permeabilization” value [2] was 1.88 µM, the “alpha-helical content, TFE 20%” value [3] was 51 ± 4% and the “alpha-helical content, POPC:POPG 8:2” value [3] was 27 ± 3%. For the same substance, the “alpha-helical content, Solution” value [3] was 2 ± 2%.
In the case of “Ac-ASAHWGQRALQGAQAVAAAQRLVSAIALMTQ-NH2 [P454 H477S]”, the Kd (calmodulin (CaM)) is reported as 190 nM, the “∆GKd for CaM” value (calmodulin (CaM)) is reported as -9.1 kcal/mol and the “Partition coefficient KX” value [1] is reported as 340 ×10^3. For the same substance, the Kd [1] was 160 µM, the “∆GKx for POPC POPG 8:2” value [1] was -7.5 kcal/mol and the “CP1/2, peptide concentration required to induce recovery of 50% of ANTS fluorescence intensity upon LUVs permeabilization” value [2] was 0.25 µM. The “alpha-helical content, TFE 20%” value [3] was 40 ± 1%, the “alpha-helical content, POPC:POPG 8:2” value [3] was 20 ± 2% and the “alpha-helical content, Solution” value [3] was 4 ± 2%.
